Calls of active or inactive are those of the source. The rule behind the calls is not given here.
How the values were obtained:
MIA PaCa-2 [1] = assay: Antitumor activity against human MIAPaCa2 cells xenografted in athymic BALB/c nu/nu nude mouse assessed as tumor incidence at 10 mg/kg dosed daily measured on day 10 after tumor cell inoculation (reference value: 80%); type: functional
MIA PaCa-2 [2] = assay: Antitumor activity against human MIAPaCa2 cells xenografted in athymic BALB/c nu/nu nude mouse assessed as effect on tumor incidence at 120 mg/kg dosed every 3 days and co-treated with 10 mg/kg OGF measured on day 16 after tumor cell inoculation relative to control; type: functional, organism-based
MIA PaCa-2 [3] = assay: Antitumor activity against human MIAPaCa2 cells xenografted in athymic BALB/c nu/nu nude mouse assessed as reduction in tumor weight at 120 mg/kg dosed every 3 days and co-treated with 10 mg/kg OGF measured on day 45 after tumor cell inoculation; type: functional; set-up: scale not given: the % may be the effect or the level left
MIA PaCa-2 [4] = assay: Antitumor activity against human MIAPaCa2 cells xenografted in athymic BALB/c nu/nu nude mouse assessed as effect on tumor incidence at 120 mg/kg dosed every 3 days measured on day 16 after tumor cell inoculation relative to control; type: functional, organism-based
MIA PaCa-2 [5] = assay: Antitumor activity against human MIAPaCa2 cells xenografted in athymic BALB/c nu/nu nude mouse assessed as effect on tumor incidence at 10 mg/kg dosed daily measured on day 16 after tumor cell inoculation relative to control; type: functional, organism-based
MIA PaCa-2 [6] = assay: Antitumor activity against human MIAPaCa2 cells xenografted in athymic BALB/c nu/nu nude mouse assessed spleen weight at 10 mg/kg dosed daily measured on day 45 after tumor cell inoculation (reference value: 761 +/- 61 mg); type: functional
[7] = Toxicity in athymic BALB/c nu/nu nude mouse xenografted with human MIAPaCa2 cells assessed as body weight at 120 mg/kg dosed every 3 days and co-treated with 10 mg/kg OGF measured on day 45 after tumor cell inoculation (reference value: 33.3 +/- 1 g); type: organism-based; conditions: in vivo, 72 h
MIA PaCa-2 [8] = assay: Antitumor activity against human MIAPaCa2 cells xenografted in athymic BALB/c nu/nu nude mouse assessed as reduction in tumor volume at 120 mg/kg dosed every 3 days and co-treated with 10 mg/kg OGF measured on day 45 after tumor cell inoculation; type: functional; set-up: scale not given: the % may be the effect or the level left
MIA PaCa-2 [9] = assay: Growth inhibition of human MIAPaCa2 cells assessed as decrease in cell number at 0.01 uM incubated for 72 hrs in presence of 1 uM OGF by MTS assay relative to control; type: functional
MIA PaCa-2 [10] = assay: Growth inhibition of human MIAPaCa2 cells assessed as decrease in cell number at 0.01 uM incubated for 48 hrs in presence of 1 uM OGF by MTS assay relative to control; type: functional

In the case of `Nc1ccn([C@@H]2O[C@H](CO)[C@@H](O)C2(F)F)c(=O)n1` [GEMCITABINE], the Activity (MIA PaCa-2 [1]) was 60%, the Activity (MIA PaCa-2 [2]) was “inactive” and the Activity (MIA PaCa-2 [3]) was 85%. The Activity (MIA PaCa-2 [4]) was “inactive”, the Activity (MIA PaCa-2 [5]) was “inactive” and the Activity (MIA PaCa-2 [6]) was 606 mg. For the same molecule, the Activity [7] was 30.6 g, the Activity (MIA PaCa-2 [8]) was 83% and the “growth inhibition (GI)” value (MIA PaCa-2 [9]) was 49%. For the same molecule, the “growth inhibition (GI)” value (MIA PaCa-2 [10]) was 26%.
